Tested on: 485176-168-R4-J1-PDC complex spheroid growth
Assay: Anticancer human tumor 485176-168-R4-J1-PDC patient-derived pancreatic adenocarcinoma cell line growth inhibition [RAS]
Conditions: for viability, T/C: stronger effect = lower value
Outline: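 Multi-cell-type spheroids: tumor cells plus HUVEC endothelial cells and mesenchymal stem cells. RAS-pathway inhibitors were combined with targeted agents, each dosed in half-log steps down from clinical Cmax, or from 10 microM when Cmax was unknown.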

[1] = curve of first compound, second compound 0.000949 µM
[2] = curve of first compound, second compound 0.003 µM
[3] = curve of first compound, second compound 0.00949 µM
[4] = curve of first compound, second compound 0.03 µM
[5] = curve of first compound, second compound 0.0949 µM
[6] = curve of first compound, second compound 0.3 µM
[7] = second compound 0.000949 µM, first compound 0.0316 µM
[8] = second compound 0.000949 µM, first compound 0.1 µM
[9] = second compound 0.000949 µM, first compound 0.316 µM
[10] = second compound 0.000949 µM, first compound 1 µM
[11] = second compound 0.000949 µM, first compound 3.16 µM
[12] = second compound 0.000949 µM, first compound 10 µM
[13] = second compound 0.003 µM, first compound 0.0316 µM
[14] = second compound 0.003 µM, first compound 0.1 µM
[15] = second compound 0.003 µM, first compound 0.316 µM
[16] = second compound 0.003 µM, first compound 1 µM
[17] = second compound 0.003 µM, first compound 3.16 µM
[18] = second compound 0.003 µM, first compound 10 µM
[19] = second compound 0.00949 µM, first compound 0.0316 µM
[20] = second compound 0.00949 µM, first compound 0.1 µM
[21] = second compound 0.00949 µM, first compound 0.316 µM
[22] = second compound 0.00949 µM, first compound 1 µM
[23] = second compound 0.00949 µM, first compound 3.16 µM
[24] = second compound 0.00949 µM, first compound 10 µM
[25] = second compound 0.03 µM, first compound 0.0316 µM
[26] = second compound 0.03 µM, first compound 0.1 µM
[27] = second compound 0.03 µM, first compound 0.316 µM
[28] = second compound 0.03 µM, first compound 1 µM
[29] = second compound 0.03 µM, first compound 3.16 µM
[30] = second compound 0.03 µM, first compound 10 µM
[31] = second compound 0.0949 µM, first compound 0.0316 µM
[32] = second compound 0.0949 µM, first compound 0.1 µM
[33] = second compound 0.0949 µM, first compound 0.316 µM
[34] = second compound 0.0949 µM, first compound 1 µM
[35] = second compound 0.0949 µM, first compound 3.16 µM
[36] = second compound 0.0949 µM, first compound 10 µM
[37] = second compound 0.3 µM, first compound 0.0316 µM
[38] = second compound 0.3 µM, first compound 0.1 µM
[39] = second compound 0.3 µM, first compound 0.316 µM
[40] = second compound 0.3 µM, first compound 1 µM
[41] = second compound 0.3 µM, first compound 3.16 µM
[42] = second compound 0.3 µM, first compound 10 µM
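Note: spheroids exposed to compounds for seven days before readout.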
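Throughout, for viability, T/C: luminescence viability expressed relative to DMSO vehicle wells set as 100%.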

For `Cc1nc(N2CCC3(CC2)COC(C)C3N)c(CO)nc1Sc1ccnc(N)c1Cl` (stereo unspecified) + CCn1c(-c2cccnc2C(C)OC)c2c3cc(ccc31)N1CCOC(CC(NC(=O)C(C(C)C)N(C)C(=O)C3(F)CCN(C(=O)C#CC(C)(C)N(C)C)CC3)C(=O)N3CCCC(N3)C(=O)OCC(C)(C)C2)C1, the IC50 [1] was greater than 10 µM, the IC50 [2] was greater than 10 µM and the IC50 [3] was greater than 10 µM. It also gave an IC50 [4] greater than 10 µM, an IC50 [5] greater than 10 µM and an IC50 [6] greater than 10 µM. For the same molecule, the viability, T/C [7] was 96.6%, the viability, T/C [8] was 87.4% and the viability, T/C [9] was 84%. The viability, T/C [10] was 85.1%, the viability, T/C [11] was 89.1% and the viability, T/C [12] was 79.4%. The viability, T/C [13] was 93.1%, the viability, T/C [14] was 103% and the viability, T/C [15] was 81%. The viability, T/C [16] was 68.9%, the viability, T/C [17] was 82% and the viability, T/C [18] was 71%. It also gave a viability, T/C [19] of 110%, a viability, T/C [20] of 92.9% and a viability, T/C [21] of 94.7%. It also gave a viability, T/C [22] of 77.6%, a viability, T/C [23] of 87.6% and a viability, T/C [24] of 64.3%. The viability, T/C [25] was 93.3%, the viability, T/C [26] was 91.2% and the viability, T/C [27] was 92.2%. For the same molecule, the viability, T/C [28] was 69.2%, the viability, T/C [29] was 74.8% and the viability, T/C [30] was 73.9%. For the same molecule, the viability, T/C [31] was 97.3%, the viability, T/C [32] was 85.4% and the viability, T/C [33] was 72.3%. It also gave a viability, T/C [34] of 87.3%, a viability, T/C [35] of 70.8% and a viability, T/C [36] of 85.5%. The viability, T/C [37] was 71.7%, the viability, T/C [38] was 65.4% and the viability, T/C [39] was 60.2%. For the same molecule, the viability, T/C [40] was 66%, the viability, T/C [41] was 70.8% and the viability, T/C [42] was 66.2%.

In the case of `O=C(c1ccc(F)c(F)c1Nc1ccc(I)cc1F)N1CC(O)([C@@H]2CCCCN2)C1`, the viability, T/C (compound 0.00316 µM) is reported as 91.9% [middle of 4 runs], the viability, T/C (compound 0.01 µM) is reported as 78.6% [middle of 4 runs] and the viability, T/C (compound 0.0316 µM) is reported as 71% [middle of 4 runs]. The viability, T/C (compound 0.1 µM) was 53.7% [middle of 4 runs], the viability, T/C (compound 0.316 µM) was 51.2% [middle of 4 runs] and the viability, T/C (compound 1 µM) was 39.7% [middle of 4 runs]. The IC50 (curve of compound) was 206 nM [middle of 4 runs].

With `C[C@@H](NC(=O)c1ncnc(N)c1Cl)c1ncc(C(=O)Nc2cc(C(F)(F)F)c(Cl)cn2)s1` + CCn1c(-c2cc(N3CCN(C)CC3)cnc2C(C)OC)c2c3cc(ccc31)-c1csc(n1)CC(NC(=O)C1CC1C)C(=O)N1CCCC(N1)C(=O)OCC(C)(C)C2 the IC50 [1] was greater than 10 µM, the IC50 [2] was greater than 10 µM and the IC50 [3] was greater than 10 µM. It also gave an IC50 [4] greater than 10 µM, an IC50 [5] of 2.38 µM and an IC50 [6] of 4.37 µM. It also gave a viability, T/C [7] of 102%, a viability, T/C [8] of 92.3% and a viability, T/C [9] of 83.9%. It also gave a viability, T/C [10] of 67.5%, a viability, T/C [11] of 83.7% and a viability, T/C [12] of 83.8%. For the same molecule, the viability, T/C [13] was 86.6%, the viability, T/C [14] was 97.8% and the viability, T/C [15] was 92.4%. It also gave a viability, T/C [16] of 84.1%, a viability, T/C [17] of 71.7% and a viability, T/C [18] of 58.1%. It also gave a viability, T/C [19] of 92.7%, a viability, T/C [20] of 90.9% and a viability, T/C [21] of 74%. The viability, T/C [22] was 74%, the viability, T/C [23] was 57.6% and the viability, T/C [24] was 56.2%. It also gave a viability, T/C [25] of 92.1%, a viability, T/C [26] of 77.6% and a viability, T/C [27] of 89.5%. The viability, T/C [28] was 55.8%, the viability, T/C [29] was 56.3% and the viability, T/C [30] was 43.8%. It also gave a viability, T/C [31] of 78.2%, a viability, T/C [32] of 80.3% and a viability, T/C [33] of 59.7%. The viability, T/C [34] was 51.4%, the viability, T/C [35] was 56.1% and the viability, T/C [36] was 36.2%. It also gave a viability, T/C [37] of 85.4%, a viability, T/C [38] of 69.6% and a viability, T/C [39] of 65.5%. The viability, T/C [40] was 58.7%, the viability, T/C [41] was 57% and the viability, T/C [42] was 42.3%.

— PubChem BioAssay AID2060906 (Molecular Pharmacology Branch, DTP, NCI, 2025)
